Records with an inconclusive call do not appear. Active and inactive are the calls of the source. The rule behind the calls is not given here.
tested on: S. typhimurium/E. coli reverse mutation, colony counts; experiment: Bacterial reverse mutation test (aka Ames test) summary data
In short: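 S. typhimurium his⁻ strains (TA97–TA1538) and E. coli WP2 uvrA pKM101 trp⁻, dosed over a range with or without rat, hamster or mouse liver S9. Preincubated 20 min at 37° C (or plate incorporation), plated in agar, incubated usually two days. Revertant colonies counted against negative controls.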

Row | SMILES | outcome
1 | CC1(C)C(=O)N(Cl)C(=O)N1Cl | inactive; negative
2 | c1ccc2scnc2c1 | inactive; negative
3 | CCCCCN(CCCCC)CCCCC | inactive; negative
4 | Cc1c(O)cccc1O | inactive; negative
5 | Clc1cccc(Cl)c1Cl | inactive; negative
6 | Nc1ccc(S(=O)(=O)Nc2nccs2)cc1 | inactive; negative
7 | Oc1ccccc1Cl | inactive; negative
8 | OCC(CBr)(CBr)CBr | active; positive
9 | CC(C)[N+](C)(CCOC(=O)C1c2ccccc2Oc2ccccc21)C(C)C | inactive; negative
10 | c1ccc(P(c2ccccc2)c2ccccc2)cc1 | inactive; negative
11 | CCCNC(=O)NS(=O)(=O)c1ccc(Cl)cc1 | inactive; negative
12 | OCCC(F)(F)C(F)(F)C(F)(F)C(F)(F)C(F)(F)C(F)(F)C(F)(F)C(F)(F)F | inactive; negative
13 | CC(C)(C)OCC1CO1 (stereo not given) | active; positive
14 | CC[C@H]1OC(=O)[C@H](C)[C@@H](O[C@H]2C[C@@](C)(OC)[C@@H](O)[C@H](C)O2)[C@H](C)[C@@H](O[C@@H]2O[C@H](C)C[C@H](N(C)C)[C@H]2O)[C@](C)(OC)C[C@@H](C)C(=O)[C@H](C)[C@@H](O)[C@]1(C)O | inactive; negative
15 | C=C1CC/C=C(\C)CC[C@@H]2[C@@H]1CC2(C)C | inactive; negative
16 | OC1C2(Cl)C3(Cl)C4(Cl)C(Cl)(Cl)C5(Cl)C3(Cl)C1(Cl)C5(Cl)C24Cl (stereo not given) | inactive; negative
17 | C=CC(=O)OCCCC | inactive; negative
18 | ClCC(Br)CBr (stereo not given) | active; positive
19 | c1ccc2ncccc2c1 | active; positive
20 | C[n+]1cccc(C(=O)[O-])c1 | inactive; negative
21 | O=C(O)c1cc(O)c2c(c1)C(=O)c1cccc(O)c1C2=O | active; positive
22 | O=C1CCC(=O)O1 | inactive; negative
23 | NC(=NCCCCCCN=C(N)/N=C(\N)Nc1ccc(Cl)cc1)/N=C(\N)Nc1ccc(Cl)cc1 | inactive; negative
24 | C=CCOC(=O)CC(C)C | inactive; negative
25 | O=C1OC2(c3cc(Br)c(O)c(Br)c3Oc3c2cc(Br)c(O)c3Br)c2c(Cl)c(Cl)c(Cl)c(Cl)c21 | active; positive

Row | SMILES | outcome
26 | CCCCN(CCO)CCCC | inactive; negative
27 | CCOP(=O)(NC(C)C)Oc1ccc(SC)c(C)c1 (stereo not given) | inactive; negative
28 | CN(C)C(=O)Nc1ccc(Cl)cc1 | inactive; negative
29 | BrCC1CO1 (stereo not given) | active; positive
30 | CC(=O)c1nccs1 | inactive; negative
31 | ClC1C(Cl)C(Cl)C(Cl)C(Cl)C1Cl (stereo not given) | inactive; negative
32 | O=C([O-])c1ccccn1.O=C([O-])c1ccccn1.O=C([O-])c1ccccn1.[Cr+3] | inactive; negative
33 | CCOc1ccc(N)cc1 | active; positive
34 | Cc1ccc2cccnc2c1 | active; positive
35 | CC(C)NCC(O)c1ccc(O)c(O)c1 (stereo not given) | active; weakly positive
36 | [K+] | inactive; negative
37 | FC(F)(F)C(F)(F)I | active; positive
38 | Brc1ccc(Oc2cc(Br)c(Br)cc2Br)c(Br)c1 | inactive; negative
39 | CN=[N+](C)[O-] | active; weakly positive
40 | O=[N+]([O-])c1ccccc1C(F)(F)F | inactive; negative
41 | CNc1ccccc1 | inactive; negative
42 | Cc1cccc2c1ccc1ccccc12 | active; positive
43 | Nc1ccc(S(=O)(=O)Nc2ccccn2)cc1 | inactive; negative
44 | CC(C)(Cl)[N+](=O)[O-] | active; weakly positive
45 | CCCCCC(=O)OCC | inactive; negative
46 | c1ccc2c(c1)ccc1ncccc12 | active; positive
47 | C=C1C/C(=C/C)C(=O)O[C@@H]2CCN3CC=C(COC(=O)[C@]1(C)O)[C@H]23 | active; positive
48 | C1CCC2CCCCC2C1 (stereo not given) | inactive; negative
49 | CCCCCCCCOP(=O)(OCCCCCCCC)OCCCCCCCC | inactive; negative
50 | CC(C)COC(=O)c1ccccc1N | inactive; negative

Row | SMILES | outcome
51 | O=[N+]([O-])c1ccccc1CCl | active; positive
52 | ClCC(Cl)CCl | active; positive
53 | CC(=O)Nc1ccccc1C | active; positive
54 | NCCC(=O)O | inactive; negative
55 | Nc1cc(Cl)ccc1O | active; weakly positive
56 | Cc1cc(=O)[nH]c(=S)[nH]1 | inactive; negative
57 | O=C(O)c1cc(=O)[nH]c(=O)[nH]1 | inactive; negative
58 | O=C(Nc1ccc(Br)cc1)c1cc(Br)cc(Br)c1O | inactive; negative
59 | Nc1c(N=Nc2ccc([N+](=O)[O-])cc2)c(S(=O)(=O)O)cc2cc(S(=O)(=O)O)c(N=Nc3ccccc3)c(O)c12 | active; positive
60 | ClCCBr | active; positive
61 | Oc1ccc2ccccc2c1N=Nc1ccccc1 | active; positive
62 | Oc1c(Br)cc(Br)cc1Br | inactive; negative
63 | CCCN(CCC)C(=O)SCC | inactive; negative
64 | COc1cc(C=O)ccc1O | inactive; negative
65 | Fc1ccccc1 | active; positive
66 | Nc1c(S(=O)(=O)O)cc(Nc2cccc(S(=O)(=O)CCOS(=O)(=O)O)c2)c2c1C(=O)c1ccccc1C2=O | active; positive
67 | O=CC=O | active; positive
68 | O[C@@H]([C@H](O)[C@H](O)CBr)[C@H](O)CBr | active; positive
69 | O=C(O)c1c(Cl)cccc1Cl | inactive; negative
70 | C[S+](CC[C@H](N)C(=O)[O-])C[C@H]1O[C@@H](n2cnc3c(N)ncnc32)[C@H](O)[C@@H]1O (stereo not given in full) | inactive; negative
71 | Nc1cc([N+](=O)[O-])cc(Cl)c1O | active; positive
72 | CC1CCCC1 | inactive; negative
73 | Cc1cccc(N)c1 | inactive; negative
74 | [O-][N+](=Nc1ccc(Cl)c(Cl)c1)c1ccc(Cl)c(Cl)c1 | inactive; negative
75 | NC(=Nc1ccccc1)Nc1ccccc1 | active; weakly positive

Row | SMILES | outcome
76 | O=c1c2ccccc2c(=O)c2c1ccc1c2[nH]c2c3c(=O)c4ccccc4c(=O)c3c3[nH]c4c(ccc5c(=O)c6ccccc6c(=O)c54)c3c12 | inactive; negative
77 | CCCCCCCCCCCCS | inactive; negative
78 | CC(O)CBr (stereo not given) | active; positive
79 | C=C(C)[C@H]1CC=C(C)C(=O)C1 | inactive; negative
80 | CCCCCCCCCCC1CO1 (stereo not given) | inactive; negative
81 | CCOP(=S)(OCC)Oc1ccc([N+](=O)[O-])cc1 | active; weakly positive
82 | CC(C)C(C)(C)C(C)(C)C(C)(C)S | inactive; negative
83 | Nc1ncc([N+](=O)[O-])s1 | active; positive
84 | Cc1cc(=O)oc2cc(O)cc(O)c12 | inactive; negative
85 | CSSC | inactive; negative
86 | O=C(O)CC(C(=O)O)C(CC(=O)O)C(=O)O (stereo not given) | active; positive
87 | [O-]/[N+](=N\O)c1ccccc1 | active; positive
88 | CC(=O)CC(=O)N(C)C | inactive; negative
89 | CCCCCCCCC(=O)O | inactive; negative
90 | Nc1ccc(Sc2ccc(N)cc2)cc1 | active; positive
91 | N[C@H](Cc1ccccc1)C(=O)O | inactive; negative
92 | CN(C)c1ccc(C(=C2C=CC(=[N+](C)C)C=C2)c2ccccc2)cc1 | inactive; negative
93 | C=C(C)C#N | inactive; negative
94 | CCCCC(CC)COCCC#N (stereo not given) | inactive; negative
95 | O[C@H]([C@H](O)[C@@H](O)CBr)[C@H](O)CBr | active; positive
96 | Cc1cc(-c2ccc(N=Nc3c(S(=O)(=O)O)cc4cc(S(=O)(=O)O)cc(O)c4c3O)c(C)c2)ccc1N=Nc1c(S(=O)(=O)O)cc2cc(S(=O)(=O)O)cc(O)c2c1O | inactive; negative
97 | OCC(O)CCl (stereo not given) | active; positive
98 | c1ccc(Oc2ccccc2)cc1 | inactive; negative
99 | Cc1cccc(C(=O)O)c1[N+](=O)[O-] | active; positive
100 | CCCCCCc1ccc(O)cc1O | inactive; negative

Row | SMILES | outcome
101 | [O]=[W](=[O])=[O] | inactive; negative
102 | OCCOCCO | inactive; negative
103 | Nc1ccccc1 | inactive; negative
104 | c1ccc(C2CO2)cc1 (stereo not given) | active; positive
105 | Oc1cccc(O)c1 | inactive; negative
106 | NC(N)=NC(=O)c1nc(Cl)c(N)nc1N | active; positive
107 | OCCN1CC1 | active; positive
108 | CNNC | inactive; negative
109 | COc1cc2c(c3oc(=O)c4c(c13)CCC4=O)[C@@H]1C=CO[C@@H]1O2 | active; positive
110 | O=C1C(Cl)=C(Cl)C(=O)C(Cl)=C1Cl | active; positive
111 | NC=O | inactive; negative
112 | CN=c1ccc2nc3ccc(N)cc3sc-2c1 | active; positive
113 | CCCCC(CC)COC(=O)c1ccc(N(C)C)cc1 (stereo not given) | inactive; negative
114 | c1ccc2c(c1)CCCC2 | inactive; negative
115 | CCNNCC | inactive; negative
116 | S=c1[nH][nH]c(=S)s1 | inactive; negative
117 | O=C(O)c1ccc(Cl)cc1Cl | inactive; negative
118 | O=C=Nc1ccc(N=C=O)cc1 | inactive; negative
119 | O=C(OC1CCCCC1)c1ccccc1C(=O)OC1CCCCC1 | inactive; negative
120 | Clc1ccccn1 | active; positive
121 | CCC[CH2][Sn]([CH2]CCC)([CH2]CCC)[O][Sn]([CH2]CCC)([CH2]CCC)[CH2]CCC | inactive; negative
122 | CCCC(=O)O | inactive; negative
123 | CCN(CC)CCCC(C)Nc1c2ccc(Cl)cc2nc2ccc(OC)cc12 (stereo not given) | active; positive
124 | Nc1cccc(N)c1 | active; positive
125 | CC1=C(/C=C/C(C)=C/C=C/C(C)=C/CO)C(C)(C)CCC1 | active; weakly positive

— PubChem BioAssay AID2202554 (NIEHS Division of Translational Toxicology (DTT))
